Results from US12048737B2, “Use of a vaccine targeting a cryptic tert epitope, for treating cancer in a HLA-A*0201-positive patient having a non-immunogenic tumor expressing tert” (KRIPTIC PHARMACEUTICALS LIMITED, priority 2017, dated 2024).

Legend:
TERT572 peptide = assay: IFNg ELISpot immunomonitoring of vaccine induced TERT572 specific immune response in PBMC; format: cell-based, human
[1] = system: NSCLC tumors expressing TElomerase Reverse Transcriptase (TERT); assay: Vx-001-201 randomized double blind phase IIb study: clinical outcome (OS, TTF, 12 months survival); format: in vivo, human
From the text: The Vx-001-201 study is a randomized, double blind multicenter study done in 70 centers in France, Germany, Spain, Italy, Greece, Poland, Romania and Czech Republic. Key eligibility criteria were a) non small cell lung cancer (NSCLC), b) stage IV or recurrent stage I-III, c) disease control after platinum based first line chemotherapy according to RECIST 1.1 criteria, d) HLA-A*0201 positivity, e) tumors expressing TElomerase Reverse Transcriptase (TERT), f) ECOG 0 or 1 g) absence of brain metastasis.
• a) Principal endpoint: overall survival (OS) measured from randomization • b) Secondary endpoints: • Time to Treatment Failure (TTF) measured from randomization • OS at 12 months • c) Main exploratory objectives • Evaluation of vaccine induced specific immune response • Correlation between vaccine specific immune response and clinical response Procedures and Vaccination Protocol
Patients who fulfilled all inclusion criteria were randomized within 4 weeks after the end of first line chemotherapy.
The vaccination protocol consisted in six vaccinations at three week interval. The optimized Vx-001/TERT572Y was used in the first two vaccinations and the native Vx-001/TERT572 in the following four vaccinations. Patients who continued controlling their disease after the sixth vaccination received boost vaccination with the Vx-001/TERT572 every three months. Vaccination was stopped at disease progression (FIG. 1).
The primary and secondary endpoints were analysed in the Full Analysis Set (FAS) composed of all patients who fulfilled the five main criteria a) NSCLC, b) stage IV or recurrent stage I-III, c) disease control after first line chemotherapy, d) HLA-A*0201 positivity and e) TERT expressing tumors.
We used the Kaplan-Meier method to estimate OS and TTF in each arm and a Cox proportional hazards regression model to estimate Hazard Ratio (HR) relating OS and TTF to the treatment effect.

[2] = patients with natural immunity against TERT572
[3] = FAS, all patients, Vx-001 vs placebo
[4] = FAS, OR to chemotherapy (n = 87)
[5] = FAS, SD to chemotherapy (n = 103)
[6] = Vx-001 responders vs non-responders
[7] = patients with no natural immunity
[8] = patients without natural immunity, Vx-001 vs placebo
[9] = vaccinated patients, Vx-001 immune non-responders
[10] = vaccinated patients, Vx-001 immune responders
[11] = with natural immunity, assessed before 26 days after end of chemotherapy
[12] = with natural immunity, assessed before 26 days after end of chemotherapy, Vx-001 vs placebo
[13] = within Vx-001 treated (n = 80): natural immunity vs no natural immunity
[14] = without natural immunity, assessed less than 26 days after end of chemotherapy
[15] = without natural immunity, assessed less than 26 days after end of chemotherapy, Vx-001 vs placebo
[16] = without natural immunity, 1st line CARBO (n = 74)
[17] = without natural immunity, 1st line CARBO (n = 74), Vx-001 vs placebo
[18] = without natural immunity, 1st line CDDP (n = 46)

Vx-001: vaccine composed of two nine amino acid peptides, TERT572 and TERT572Y, administered separately with the adjuvant Montanide ISA51 VG (chain 1 RLFFYRKSV; chain 2 YLFFYRKSV; Montanide ISA51 VG adjuvant; peptide from a human protein; optimized peptide)
Patients who mounted a TERT572 specific immune response (TERT572 peptide; 75 Vx-001 treated patients measured at least at W6, W18 or thereafter): 29.3%
Patients with TERT572 specific immune response (TERT572 peptide; non-squamous (NSQ) NSCLC): 36%
Frequency of patients with vaccine-induced immune response (TERT572 peptide; [2]): 15%
Frequency of patients with vaccine-induced immune response (TERT572 peptide; patients without natural immunity against TERT572): 36.2%
Patients with TERT572 specific immune response (TERT572 peptide; squamous (SQ) NSCLC): 13.3%
12 months survival ([1]; FAS, all patients): 58%
Median OS ([1]; FAS, all patients): 14.3 months
Median TTF ([1]; FAS, all patients): 3.6 months
HR (OS) [1, 3]: 0.97
HR (TTF) [1, 3]: 0.88
12 months OS ([1]; FAS, 1st line CARBO (n = 119)): 58.2%
Median survival (OS) ([1]; FAS, 1st line CARBO (n = 119)): 14.3 months
HR (OS) ([1]; FAS, 1st line CARBO (n = 119), Vx-001 vs placebo): 1.06
12 months OS ([1]; FAS, 1st line CDDP (n = 69)): 59%
Median survival (OS) ([1]; FAS, 1st line CDDP (n = 69)): 15 months
HR (OS) ([1]; FAS, 1st line CDDP (n = 69), Vx-001 vs placebo): 0.81
12 months OS ([1]; FAS, <65 years (n = 92)): 57.7%
Median survival (OS) ([1]; FAS, <65 years (n = 92)): 13.4 months
HR (OS) ([1]; FAS, <65 years (n = 92), Vx-001 vs placebo): 1.2
12 months OS ([1]; FAS, >65 years (n = 98)): 59%
Median survival (OS) ([1]; FAS, >65 years (n = 98)): 15 months
HR (OS) ([1]; FAS, >65 years (n = 98), Vx-001 vs placebo): 0.78
12 months OS ([1]; FAS, Female (n = 59)): 53.3%
Median survival (OS) ([1]; FAS, Female (n = 59)): 13.2 months
HR (OS) ([1]; FAS, Female (n = 59), Vx-001 vs placebo): 1.52
12 months OS ([1]; FAS, Male (n = 131)): 61%
Median survival (OS) ([1]; FAS, Male (n = 131)): 15 months
HR (OS) ([1]; FAS, Male (n = 131), Vx-001 vs placebo): 0.81
12 months OS ([1]; FAS, NSQ (n = 118)): 55%
Median survival (OS) ([1]; FAS, NSQ (n = 118)): 13.4 months
HR (OS) ([1]; FAS, NSQ (n = 118), Vx-001 vs placebo): 0.88
12 months OS [1, 4]: 69%
Median survival (OS) [1, 4]: 15.3 months
HR (OS) ([1]; FAS, OR to chemotherapy (n = 87), Vx-001 vs placebo): 0.89
12 months OS [1, 5]: 52%
Median survival (OS) [1, 5]: 14.3 months
HR (OS) ([1]; FAS, SD to chemotherapy (n = 103), Vx-001 vs placebo): 0.99
12 months OS ([1]; FAS, SQ (n = 72)): 64%
Median survival (OS) ([1]; FAS, SQ (n = 72)): 14.3 months
HR (OS) ([1]; FAS, SQ (n = 72), Vx-001 vs placebo): 1.13
HR (OS) [1, 6]: 0.39
HR (TTF) [1, 6]: 0.41
12 months OS ([1]; patients with natural immunity): 65%
Median TTF ([1]; patients with natural immunity): 2.9 months
OS and 12 months survival, placebo vs Vx-001 ([1]; patients with natural immunity (FIG. 6)): no difference
Median survival (OS) [1, 2]: 15.5 months
12 months OS [1, 7]: 55%
Median TTF [1, 7]: 4.1 months
Median survival (OS) ([1]; patients with no natural immunity against TERT572 (non-immunogenic tumors)): 13.2 months
HR (OS) [1, 8]: 0.80
HR (TTF) [1, 8]: 0.75
Median OS [1, 9]: 13.4 months
Median TTF [1, 9]: 3.6 months
Median OS [1, 10]: 21.3 months
Median TTF [1, 10]: 9.1 months
Median OS [1, 11]: 15.3 months
Median TTF [1, 11]: 2.2 months
HR (OS) [1, 12]: 1.54
HR (TTF) [1, 12]: 1.98
HR (OS) [1, 13]: 0.91
HR (TTF) [1, 13]: 0.83
Median OS ([1]; without natural immunity, assessed later than 26 days after chemotherapy): 13.2 months
HR (OS) ([1]; without natural immunity, assessed later than 26 days after chemotherapy, Vx-001 vs placebo): 0.96
Median OS [1, 14]: 11.7 months
Median TTF [1, 14]: 4.1 months
HR (OS) [1, 15]: 0.58
HR (TTF) [1, 15]: 0.62
12 months OS [1, 16]: 53%
Median TTF [1, 16]: 3.7 months
Median survival (OS) [1, 16]: 13.1 months
HR (OS) [1, 17]: 1.03
HR (TTF) [1, 17]: 0.80
12 months OS [1, 18]: 59%
Median TTF [1, 18]: 4.1 months
